Results as given in patent EP0563734A1, “9-fluoro-7-oxo-7H-pyrido(1,2,3-de)(1,4)benzoxazine carboxylic acids and esters and their use as antiviral agents” (BAYER AG, priority 1992, dated 1993).

System: Hepatitis B Virus
Test: HBV test system: HBV-DNA content in the supernatant of HBV-DNA-transfected hepatoma cells (HEP G2.2.15), after PEG precipitation, with a non-radioactive HBV genomic DNA probe
Assay type: cell-based
Conditions: HepG2.2.15, 50%ige Hemmung der HBV-DNA Konzentration im Überstand, read-out: IC₅₀
Source text: Der Nachweis wurde in mit Hepatitis B Virus DNA transfizierten Hepatomzellen (HEP G2.2.15) geführt. Die Ergebnisse der unten aufgeführten Beispiele wurden zu dem in der folgenden Literaturangabe [Sells, M.A.; Chen, M.L., Acs, G., Proc. Natl. Acad. Sci. USA S. 1005 - 1009, Vol. 84 (1987] beschriebenen HBV-Testsystem ermittelt: Transfizierte Hepatomzellen (HEP G2.2.15) wurden mit verschiedenen Konzentrationen der jeweiligen Verbindung inkubiert. Durch Behandlung der transfizierten Hepatomzellinie HEP G2.2.15 mit den erfindungsgemäßen Verbindungen konnte die Reduktion der virusspezifischen HBV-DNA im Überstand sowie eine Reduktion des HBsAg Spiegels gezeigt werden. Es wurde weiter gefunden, daß die erfindungsgemäßen Verbindungen zu einer Reduktion der replikativen Intermediate der Hepatitisviren führen. Im Überstand der Zellkulturen wurde nach PEG Fällung der Gehalt an HBV-DNA bestimmt. Dies geschah unter Verwendung einer nicht radioaktiv markierten HBV genomischen DNA Probe [Pauly, P., 1982, Ph. D. Thesis, University of Göttingen, F.R.G.; Köchel et al., 1990, EMBL, Accession-Nr. X 51790]. Gleichzeitig erfolgte der Nachweis der Beeinflussung der HBsAg Bildung mittels eines kommerziell erhältlichen ELISA Tests. Die angegebenen IC₅₀-Werte beziehen sich auf die Substratkonzentrationen, die unter den oben aufgeführten Testbedingungen eine 50%ige Hemmung der HBV-DNA Konzentration im Überstand bewirken. Tabelle A
Gleichzeitig erfolgte die Bestimmung des möglicherweise vorhandenen cytotoxischen Einflusses der erfindungsgemäßen Verbindungen mittels Kristallviolettfärbung bzw. über den Einbau von radioaktiv markiertem Thymidin in die zelluläre DNA.

| SMILES | IC50 |
| --- | --- |
| CC1=COc2c(N3CCN(C4CC4)CC3)c(F)cc3c(=O)c(C(=O)O)cn1c23 [Beispiel 9, 10-(4-Cyclopropyl-piperazin-1-yl)-9-fluor-3-methyl-7-oxo-7H-pyrido-[1,2,3-de][1,4]benzoxazin-6-carbonsäure] | 100 nM |
| CCOC(=O)C1=Cn2cc(C(=O)OCC)c(=O)c3cc(F)c(F)c(c32)O1 [Beispiel I, 9,10-Difluor-2-ethoxycarbonyl-7-oxo-7H-pyrido[1,2,3-de][1,4]benzoxazin-6-carbonsäureethylester] | 500 nM |
| CCOC(=O)c1cn2c3c(c(F)c(F)cc3c1=O)OC(C(C)(C)CCCOc1ccccc1)=C2 [Beispiel VIII, 9,10-Difluor-2-(2-methyl-5-phenoxy-2-pentyl)-7-oxo-7H-pyrido[1,2,3-de][1,4]-benzoxazin-6-carbonsäureethylester] | 500 nM |
